Consider two molecules from US20220105150A1, “AMPHIPATHIC ALPHA-HELICAL ANTIMICROBIAL PEPTIDES TREAT INFECTIONS BY GRAM-NEGATIVE PATHOGENS” (priority 2019, published 2022).

In brackets after ≈: the same amount, converted by molar mass.

For series [1], the system named is Acinetobacter baumannii isolates resistant to classical antibiotics. In kind it is cell-based. An excerpt: Thus, shortening the number of carbon atoms between the side-chain amino group and the α-carbon atom from four (Lys) to one (diaminopropionic acid) had very little effect on antibacterial activity (Table 2). We also determined the antibacterial activity of our five AMPs against 20 additional Acinetobacter baumannii isolates from four continents, 12 different countries and 17 different cities that were resistant to 18 different antibiotics. […] Thus, it is very clear that changing the type of positively-charged residue on the polar face of these AMPs had very little effect on the antibacterial activities.

Series [2] deals with Acinetobacter baumannii strains resistant to Polymyxin B and Colistin. To be noted: Mueller-Hinton medium, 37° C., 24 h.
Series [3] relates to A. baumannii strain 649. In kind it is cell-based, Acinetobacter baumannii. The conditions noted are these: MH medium, no serum. On the procedure:
Hemoglobin release was determined spectrophotometrically at 570 nm.
Because only unbound AMP is available to interact with the therapeutic target, the extent of binding between AMPs and serum proteins can have significant effects on efficacy of these drugs. […] This assay estimates the in vivo bioavailability of our AMPs. […] An increase in MIC in the presence of serum is attributed to inhibition of antimicrobial activity due to binding to serum proteins.

Series [4] concerns the molecule itself. Description: RP-HPLC temperature profiling (self-association).

In the case of `CC(=O)N[C@H](CCCCN)C(=O)N[C@H](CC(C)C)C(=O)N[C@H](CCCN)C(=O)N[C@H](CO)C(=O)N[C@H](CC(C)C)C(=O)N[C@H](CC(C)C)C(=O)N[C@H](CCCN)C(=O)N[C@@H](C(=O)N[C@H](CC(C)C)C(=O)N[C@H](CO)C(=O)N[C@H](CCCN)C(=O)N[C@H](C)C(=O)N[C@H](C)C(=O)N[C@H](C)C(=O)N[C@H](C)C(=O)N[C@H](C)C(=O)N[C@H](CC(C)C)C(=O)N[C@H](CCCN)C(=O)N[C@@H](C(=O)N[C@H](CC(C)C)C(=O)N[C@H](CC(C)C)C(=O)N[C@H](CCCN)C(=O)N[C@H](C)C(=O)N[C@H](CC(C)C)C(=O)N[C@H](CO)C(=O)N[C@H](CCCN)C(N)=O)[C@H](C)O)[C@H](C)O` [D85(K13A/K16A)-(Lys^1-6Orn-1), Ac-KL(Orn)SLL(Orn)TLS(Orn)AAAAAL(Orn)TLL(Orn)ALS(Orn)-amide], the “MIC 101887” value in series [1] (strain 101887 (lower line)) came to 3.0 µM (≈ 8 µg/mL). For the same molecule, the “MIC 961997” value in series [1] (strain 961997 (lower line)) was found to be 1.5 µM (≈ 4 µg/mL). Also, the “MIC 963618” value in series [1] (strain 963618 (lower line)) was found to be 1.5 µM (≈ 4 µg/mL). The “MIC 964304” value in series [1] (strain 964304 (lower line)) stood at 1.5 µM (≈ 4 µg/mL). In series [1] (strain 977751 (lower line)), the “MIC 977751” value amounted to 6.0 µM (≈ 16 µg/mL). The “MIC 981653” value in series [1] (strain 981653 (lower line)) is 1.5 µM (≈ 4 µg/mL). Besides, the “MIC 1002956” value in series [1] (strain 1002956 (lower line)) is 1.5 µM (≈ 4 µg/mL). Also, the “MIC 1007660” value in series [1] (strain 1007660 (lower line)) came out at 1.5 µM (≈ 4 µg/mL). Also, the “MIC 1010282” value in series [1] (strain 1010282 (lower line)) was 1.5 µM (≈ 4 µg/mL). Also, in series [1] (strain 1035166 (lower line)), the “MIC 1035166” value was found to be 1.5 µM (≈ 4 µg/mL). Also, the “MIC MB9941” value in series [2] (strain MB9941) came out at 2.9 µM (≈ 7.74 µg/mL). Besides, in series [2] (strain MB9949), the “MIC MB9949” value stood at 2.9 µM (≈ 7.74 µg/mL). Also, the “MIC MB9951” value in series [2] (strain MB9951) was determined as 1.5 µM (≈ 4 µg/mL). The “MIC MB9952” value in series [2] (strain MB9952) was 1.5 µM (≈ 4 µg/mL). In addition, the “MIC MB9953” value in series [2] (strain MB9953) is 1.5 µM (≈ 4 µg/mL). In addition, the “MIC MB9955” value in series [2] (strain MB9955) was found to be 1.5 µM (≈ 4 µg/mL). Also, the “MIC MB9963” value in series [2] (strain MB9963) was determined as 2.9 µM (≈ 7.74 µg/mL). In series [3], the “MIC No serum” value was found to be 1.5 µM (≈ 4 µg/mL).

B1: random coil control peptide (RC) (peptide)
peptide: Ac-ELEKGGLEGEKGGKELEK-NH2
With B1, the binding result in series [4] is listed as “no binding”.
